Laboratory results reported in patent US9512132B2, “Pyrazole compounds as CB2 agonists” (Hoffmann-La Roche Inc., priority 2013, dated 2016).
Like-named read-outs stand apart in the source and are kept apart here.

Assays:
human CB2 receptor = human CB2 receptor (Homo sapiens (Human), UniProt P34972); assay: cAMP assay, CHO cells expressing human CB2 receptors; assay type: cell-based
Protocol: (§1) CHO cells expressing human CB1 or CB2 receptors are seeded 17-24 hours prior to the experiment 50.000 cells per well in a black 96 well plate with flat clear bottom (Corning Costar #3904) in DMEM (Invitrogen No. 31331), lx HT supplement, with 10% fetal calf serum and incubated at 5% CO2 and 37° C. in a humidified incubator. The growth medium was exchanged with Krebs Ringer Bicarbonate buffer with 1 mM IBMX and incubated at 30° C. for 30 min. Compounds were added to a final assay volume of 100 μl and incubated for 30 min at 30° C. Using the cAMP-Nano-TRF detection kit the assay (Roche Diagnostics) was stopped by the addition of 50 μl lysis reagent (Tris, NaCl, 1.5% Triton X100, 2.5% NP40, 10% NaN3) and 50 μl detection solutions (20 μM mAb Alexa700-cAMP 1:1, and 48 μM Ruthenium-2-AHA-cAMP) and shaken for 2 h at room temperature. The time-resolved energy transfer is measured by a TRF reader (Evotec Technologies GmbH), equipped with a ND:YAG laser as excitation source. The plate is measured twice with the excitation at 355 nm and at the emission with a delay of 100 ns and a gate of 100 ns, total exposure time 10 s at 730 (bandwidth 30 nm) or 645 nm (bandwidth 75 nm), respectively. The FRET signal is calculated as follows: FRET=T730-Alexa730-P(T645-B645) with P=Ru730-B730/Ru645-B645, where T730 is the test well measured at 730 nM, T645 is the test well measured at 645 nm, B730 and B645 are the buffer controls at 730 nm and 645 nm, respectively. cAMP content is determined from the function of a standard curve spanning from 10 μM to 0.13 nM cAMP.
(§2) EC50 values were determined using Activity Base analysis (ID Business Solution, Limited). The EC50 values for a wide range of cannabinoid agonists generated from this assay were in agreement with the values published in the scientific literature.

human CB1 receptor = human CB1 receptor (Homo sapiens (Human), UniProt P21554); assay: cAMP assay, CHO cells expressing human CB1 receptors; assay type: cell-based
Protocol: as §1, §2

[1] = functional cAMP assay, CHO cells expressing human CB2, read-out: human CB2 EC50
[2] = functional cAMP assay, CHO cells expressing human CB1, read-out: human CB1 EC50

Sequence of human CB1 receptor (P21554 whole entry): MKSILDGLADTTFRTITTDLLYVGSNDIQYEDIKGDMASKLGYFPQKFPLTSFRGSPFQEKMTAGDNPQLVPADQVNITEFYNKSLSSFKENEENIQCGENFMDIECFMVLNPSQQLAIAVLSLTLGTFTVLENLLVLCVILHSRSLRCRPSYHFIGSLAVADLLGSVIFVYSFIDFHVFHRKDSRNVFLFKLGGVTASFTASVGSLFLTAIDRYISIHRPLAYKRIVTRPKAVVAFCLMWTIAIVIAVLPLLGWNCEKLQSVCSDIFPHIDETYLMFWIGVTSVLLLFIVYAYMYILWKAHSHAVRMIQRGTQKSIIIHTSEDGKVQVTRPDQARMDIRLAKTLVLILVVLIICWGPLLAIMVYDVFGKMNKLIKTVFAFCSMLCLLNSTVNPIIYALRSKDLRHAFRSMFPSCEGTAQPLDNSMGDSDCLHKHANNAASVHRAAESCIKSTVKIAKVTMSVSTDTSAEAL
Sequence of human CB2 receptor (P34972 whole entry): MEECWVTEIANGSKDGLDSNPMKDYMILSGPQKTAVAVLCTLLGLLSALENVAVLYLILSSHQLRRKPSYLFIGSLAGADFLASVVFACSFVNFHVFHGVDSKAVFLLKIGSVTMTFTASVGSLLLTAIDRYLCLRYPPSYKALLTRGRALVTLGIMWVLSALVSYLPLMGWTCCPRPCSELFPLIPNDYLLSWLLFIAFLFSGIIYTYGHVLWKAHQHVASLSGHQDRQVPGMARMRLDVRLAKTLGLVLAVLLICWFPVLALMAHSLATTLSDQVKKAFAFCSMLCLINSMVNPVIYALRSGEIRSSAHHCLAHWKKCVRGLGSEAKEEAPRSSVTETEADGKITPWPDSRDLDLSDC

Compound	EC50 (human CB2 receptor; [1])	EC50 (human CB1 receptor; [2])	EC50 (human CB2 receptor)	EC50 (human CB1 receptor)
CC(C)(C)c1nc(N2CCC(F)(F)C2)c2cnn(CC(=O)c3ccncc3)c2n1 [Example 21, 2-[6-tert-Butyl-4-(3,3-difluoro-pyrrolidin-1-yl)-pyrazolo[3,4-d]pyrimidin-1-yl]-1-pyridin-4-yl-ethanone]	3.4 nM	> 10000 nM		
COC[C@H]1CCCN1c1nc(C(C)(C)C)nc2c1cnn2Cc1ccccc1C(F)(F)F [Example 35, 6-tert-Butyl-4-((R)-2-methoxymethyl-pyrrolidin-1-yl)-1-[(2-trifluoromethylphenyl)methyl]-1H-pyrazolo[3,4-d]pyrimidine]	13.3 nM	> 10000 nM		
CC(C)(C)c1nc(N2CCC[C@@H]2CO)c2cnn(Cc3ccccc3C(F)(F)F)c2n1 [Example 34, {(R)-1-[6-tert-Butyl-1-[(2-trifluoromethylphenyl)methyl]-1H-pyrazolo[3,4-d]pyrimidin-4-yl]pyrrolidin-2-yl}-methanol]	5 nM	> 10000 nM		
COC[C@H]1CCCN1c1nc(C(C)(C)C)nc2c1cnn2Cc1nonc1C [Example 36, 6-tert-Butyl-4-((R)-2-methoxymethyl-pyrrolidin-1-yl)-1-(4-methyl-furazan-3-ylmethyl)-1H-pyrazolo[3,4-d]pyrimidine]	1.4 nM	> 10000 nM		
CC(C)(C)c1nc(N2CC[C@H](O)C2)c2cnn(Cc3nnnn3C3CC3)c2n1 [Example 33, (S)-1-[6-tert-Butyl-1-(1-cyclopropyl-1H-tetrazol-5-ylmethyl)-1H-pyrazolo[3,4-d]pyrimidin-4-yl]-pyrrolidin-3-ol]	8.8 nM	> 10000 nM		
Cn1nnnc1Cn1ncc2c(N3CCC(F)(F)C3)nc(C(C)(C)C)nc21 [Example 15, 6-tert-Butyl-4-(3,3-difluoro-pyrrolidin-1-yl)-1-(1-methyl-1H-tetrazol-5-ylmethyl)-1H-pyrazolo[3,4-d]pyrimidine]	0.9 nM	> 10000 nM		
CC(C)(C)c1nc(N2CCC(F)(F)C2)c2cnn(Cc3ccccc3)c2n1 [Example 2, 1-Benzyl-6-tert-butyl-4-(3,3-difluoro-pyrrolidin-1-yl)-1H-pyrazolo[3,4-d]pyrimidine]	3.3 nM	> 10000 nM		
CC(C)(C)c1nc(N2CCC(F)(F)C2)c2cnn(Cc3ccccc3C(F)(F)F)c2n1 [Example 7, 6-tert-Butyl-4-(3,3-difluoro-pyrrolidin-1-yl)-1-[(2-trifluoromethylphenyl)methyl]-1H-pyrazolo[3,4-d]pyrimidine]	1.1 nM	> 10000 nM		
Cc1nonc1Cn1ncc2c(N3CCC(F)(F)C3)nc(C3CC3)cc21 [Example 27, 6-Cyclopropyl-4-(3,3-difluoro-pyrrolidin-1-yl)-1-(4-methyl-furazan-3-ylmethyl)-1H-pyrazolo[4,3-c]pyridine]	42.5 nM	> 10000 nM		
FC1(F)CCN(c2nc(Cl)nc3c2cnn3Cc2ccccc2C(F)(F)F)C1 [Example 37, 6-Chloro-4-(3,3-difluoropyrrolidin-1-yl)-1-[[2-(trifluoromethyl)phenyl]methyl]pyrazolo[3,4-d]pyrimidine]	17.2 nM	> 10000 nM		
CC(C)(C)c1nc(N2CCC(F)(F)C2)c2cnn(Cc3cccnc3Cl)c2n1 [Example 12, 6-tert-Butyl-1-(2-chloro-pyridin-3-ylmethyl)-4-(3,3-difluoro-pyrrolidin-1-yl)-1H-pyrazolo[3,4-d]pyrimidine]	1.6 nM	1570 nM		
COc1ccc(Cn2ncc3c(N4CCC(F)(F)C4)nc(C(C)(C)C)nc32)cc1 [Example 1, 6-tert-Butyl-4-(3,3-difluoro-pyrrolidin-1-yl)-[(4-methoxyphenyl)methyl]-1H-pyrazolo[3,4-d]pyrimidine]	4.8 nM	> 10000 nM		
CC(C)(C)COc1nc(N2CCC(F)(F)C2)c2cnn(Cc3ccccc3C(F)(F)F)c2n1 [Example 38, 4-(3,3-Difluoropyrrolidin-1-yl)-6-(2,2-dimethylpropoxy)-1-[[2-(trifluoromethyl)phenyl]methyl]pyrazolo[3,4-d]pyrimidine]	16 nM	> 10000 nM		
Cc1nonc1Cn1ncc2c(N3CCC(F)(F)C3)cc(C3CC3)nc21 [Example 28, 6-Cyclopropyl-4-(3,3-difluoro-pyrrolidin-1-yl)-1-(4-methyl-furazan-3-ylmethyl)-1H-pyrazolo[3,4-b]pyridine]	1.9 nM	> 10000 nM		
CC(C)(C)c1nc(N2CC[C@H](O)C2)c2cnn(Cc3ccccc3C(F)(F)F)c2n1 [Example 29, (S)-1-[6-tert-Butyl-1-[(2-trifluoromethylphenyl)methyl]-1H-pyrazolo[3,4-d]pyrimidin-4-yl]pyrrolidin-3-ol]	1.9 nM	> 10000 nM		
CC(C)(C)c1nc(N2CC[C@H](O)C2)c2cnn(Cc3ccccc3Cl)c2n1 [Example 3, (S)-1-[6-tert-Butyl-1-[(2-chlorophenyl)methyl]-1H-pyrazolo[3,4-d]pyrimidin-4-yl]-pyrrolidin-3-ol]	5.1 nM	> 10000 nM		
Cc1nonc1Cn1ncc2c(N3CC[C@H](O)C3)nc(C(C)(C)C)nc21 [Example 25, (S)-1-[6-tert-Butyl-1-(4-methyl-furazan-3-ylmethyl)-1H-pyrazolo[3,4-d]pyrimidin-4-yl]-pyrrolidin-3-ol]	0.4 nM	> 10000 nM		
Cn1nncc1Cn1ncc2c(N3CCC(F)(F)C3)nc(C(C)(C)C)nc21 [Example 19, 6-tert-Butyl-4-(3,3-difluoro-pyrrolidin-1-yl)-1-(3-methyl-3H-[1,2,3]triazol-4-ylmethyl)-1H-pyrazolo[3,4-d]pyrimidine]			1.4 nM	> 10000 nM
Cc1nnc(Cn2ncc3c(N4CC=C(F)C4)nc(C(C)(C)C)nc32)n1C [Example 18, 6-tert-Butyl-1-(4,5-dimethyl-4H-[1,2,4]triazol-3-ylmethyl)-4-(3-fluoro-2,5-dihydro-pyrrol-1-yl)-1H-pyrazolo[3,4-d]pyrimidine]	26.2 nM	> 10000 nM		
Cn1nnnc1Cn1ncc2c(N3CC[C@H](O)C3)nc(C(C)(C)C)nc21 [Example 31, (S)-1-[6-tert-Butyl-1-(1-methyl-1H-tetrazol-5-ylmethyl)-1H-pyrazolo[3,4-d]pyrimidin-4-yl]-pyrrolidin-3-ol]	17.3 nM	> 10000 nM		
CC(C)(C)c1nc(N2CCC(F)(F)C2)c2cnn(Cc3nnnn3C3CC3)c2n1 [Example 16, 6-tert-Butyl-1-(1-cyclopropyl-1H-tetrazol-5-ylmethyl)-4-(3,3-difluoro-pyrrolidin-1-yl)-1H-pyrazolo[3,4-d]pyrimidine]	0.6 nM	> 10000 nM		
Cn1nncc1Cn1ncc2c(N3CC=C(F)C3)nc(C(C)(C)C)nc21 [Example 20, 6-tert-Butyl-4-(3-fluoro-2,5-dihydro-pyrrol-1-yl)-1-(3-methyl-3H-[1,2,3]triazol-4-ylmethyl)-1H-pyrazolo[3,4-d]pyrimidine]	1.6 nM	> 10000 nM		
CCOc1nc(C(C)(C)C)nc2c1cnn2Cc1ccccc1Cl [Example 5, 6-tert-Butyl-1-[(2-chlorophenyl)methyl]-4-ethoxy-1H-pyrazolo[3,4-d]pyrimidine]	25.5 nM	> 10000 nM		
COc1ccc(Cn2ncc3c(N4CC[C@H](O)C4)nc(C(C)(C)C)nc32)cc1 [Example 23, (S)-1-[6-tert-Butyl-1-[(4-methoxyphenyl)methyl]-1H-pyrazolo[3,4-d]pyrimidin-4-yl]-pyrrolidin-3-ol]	5.5 nM	> 10000 nM		
